This experiment concerns Cotton plants (Gossypium hirsutum L.). Put plainly: foliar zinc micronutrient delivery to cotton plants. As to conditions: for Carotenoids / Chlorophylls / Electron Transport Rate / Membrane Leakage: cotton leaf. It is filed as in vivo. The text has this: An illustrative example of micronutrient delivery is the delivery of zinc (Zn) complexed to the chelant detailed herein to growing plants via foliar application. In this example, the experiment design was a Randomized Complete Design of 4 treatments of 10 replications for each of five parameters: (1) total chlorophyll by measuring fluorescence, (2) total carotenoids by measuring absorbance following organic solvent extraction, (3) electron transport rate by measuring light absorption and fluorometry, (4) membrane leakage by measuring change in electrolyte concentrations, and (5) leaf tissue concentrations of zinc by digesting samples in nitric acid followed by atomic absorption spectrophotometry. Leaf samples were collected at weekly intervals after squaring. Cotton plants (Gossypium hirsutum L.) were grown in a climate controlled chamber on a 14/10 hour, 30/20° C. diurnal cycle, respectively. Individual plants were grown in 48, 3 liter pots containing nutrient deficient potting soil. Plants received identical treatment for nutrition and growth management until squaring. At squaring, the first round of measurements were made and treatments sprayed via a CO2 backpack sprayer with plants arranged in rows. Sprays were allowed to dry before returning to the climate controlled chamber to minimize cross contamination of treatments due to foliar contact. Plants were then grown for an additional two to three weeks with nutrients being supplied via zinc-free Hoagland's solution without added Zn for treatments: ESL-Zn (base product fluid solution), Zinc Sulfate, and Low Zinc. The elemental composition of Hoagland's solution is as follows: N 210 mg/L, K 235 mg/L, Ca 200 mg/L, P 31 mg/L, S 64 mg/L, Mg 48 mg/L, B 0.5 mg/L, Fe 1 to 5 mg/L, Mn 0.5 mg/L, Zn 0.05 mg/L, Cu 0.02 mg/L, and Mo 0.01 mg/L. The four treatments and descriptions were (1) “Control” (no foliar spray addition of Zn), (2) “Low Zn” (No foliar spray addition and the Zn concentration of the Hoagland's solution was reduced to 0.025 mg/L, (3) “ZnSO4” (Foliar spray equivalent of 1% solution [e.g., 8 lbs. of 36% ZnSO4 in 100 gallons H2O] at 15 gallons/acre, and (4) “ESL-Zn” (Foliar spray equivalent of 1% solution [e.g., 8 lbs. of 36% ZnSO4 in 100 gallons H2O] at 15 gallons/acre).

[1] abbreviates: week 1 (at squaring, measured before foliar spray).
The mark [2] stands for this setting: week 2, foliar spray equivalent of 1% solution at 15 gallons/acre.
Where [3] appears, read: week 3, foliar spray equivalent of 1% solution at 15 gallons/acre.

With `O=S(=O)([O-])[O-].[Zn+2]` [ZnSO4, Zinc Sulfate], under setting [1], the Carotenoids is listed as 1.713 μg carotenoids/mg dry weight, the Chlorophylls was 11.88 μg pigments/mg dry weight, the “Electron Transport Rate” value is 71 μmol electrons m^−2 s^− and the “Membrane Leakage” value was 34.68%. In addition, the “Zn (leaf tissue concentration)” value under setting [1] was 27.46 ppm or mg/L. Under setting [2], the Carotenoids was 2.322 μg carotenoids/mg dry weight, the Chlorophylls is 12.67 μg pigments/mg dry weight, the “Electron Transport Rate” value came to 70 μmol electrons m^−2 s^− and the “Membrane Leakage” value is on record as 28.12%. Besides, the “Zn (leaf tissue concentration)” value under setting [2] is reported as 61.29 ppm or mg/L. Under setting [3], the Carotenoids was 1.559 μg carotenoids/mg dry weight, the Chlorophylls is given as 10.72 μg pigments/mg dry weight, the “Electron Transport Rate” value is reported as 68 μmol electrons m^−2 s^− and the “Membrane Leakage” value is reported as 27.06%. For the same compound, under setting [3], the “Zn (leaf tissue concentration)” value is reported as 27.52 ppm or mg/L.

The values above are taken from US10093563B2, “Method for making chelating base product used in water-based systems” (Earth Science Laboratories, priority 2015, dated 2018).
